The record followed here is patent US6855730B2, “3-methylidenyl-2-indolinone modulators of protein kinase” (Sugen, Inc., priority 1998, dated 2005).

Common to all, as to type: cell-based
In assay [1] the target is T1, chimeric receptor having the extra-cellular domain of EGF-R and the intra-cellular domain of Her2 (Homo sapiens, UniProt P04626).
T1 construct: fused on or other part: the same chimera
The assay can be described thus: EGF-induced Her2-driven BrdU incorporation. The conditions noted are these: read-out: BrdU HER 2 driven IC50. The method, then:
The cellular/catalytic assays described herein are performed in an ELISA format. The general procedure is as follows: a compound is introduced to cells expressing the test kinase, either naturally or recombinantly, for a selected period of time after which, if the test kinase is a receptor, a ligand known to activate the receptor is added. The cells are lysed and the lysate is transferred to the wells of an ELISA plate previously coated with a specific antibody recognizing the substrate of the enzymatic phosphorylation reaction. Non-substrate components of the cell lysate are washed away and the amount of phosphorylation on the substrate is detected with an antibody specifically recognizing phosphotyrosine compared with control cells that were not contacted with a test compound. The cellular/biologic assays described herein measure the amount of DNA made in response to activation of a test kinase, which is a general measure of a proliferative response. The general procedure for this assay is as follows: a compound is introduced to cells expressing the test kinase, either naturally or recombinantly, for a selected period of time after which, if the test kinase is a receptor, a ligand known to activate the receptor is added. After incubation at least overnight, a DNA labeling reagent such as Bromodeoxyuridine (BrdU) or 3H-thymidine is added. The amount of labeled DNA is detected with either an anti-BrdU antibody or by measuring radioactivity and is compared to control cells not contacted with a test compound.
EGF-Induced Her2-Driven BrdU Incorporation
Protocol • (1) Cells-are seeded at 8000 cells/well in DMEM, 10% CS, 2mM Gln in a 96-well plate. Cells are incubated overnight at 37° C. in 5% CO2. • (2) After 24 hours, the cells are washed with PBS, and then are serum starved in serum free medium (0% CS DMEM with 0.1% BSA) for 24 hours. • (3) On day 3, ligand (EGF=2 nM, prepared in DMEM with 0.1% BSA) and test compounds are added to the cells simultaneously. The negative control wells receive serum free DMEM with 0.1% BSA only, the positive control cells receive the ligand (EGF) but no test compound. Test compounds are prepared in serum free DMEM with ligand in a 96 well plate, and serially diluted for 7 test concentrations. • (4) After 20 hours of ligand activation, diluted BrdU labeling reagent (1:100 in DMEM, 0.1% BSA) is added and the cells are incubated with BrdU (final concentration=10 μM) for 1.5 hours. • (5) After incubation with labeling reagent, the medium is removed by decanting and tapping the inverted plate on a paper towel. FixDenat solution is added (50 μl/well) and the plates are incubated at room temperature for 45 minutes on a plate shaker. • (6) The FixDenat solution is thoroughly removed by decanting and tapping the inverted plate on a paper towel. Milk is added (5% dehydrated milk in PBS, 200 μ/well) as a blocking solution and the plate is incubated for 30 minutes at room temperature on a plate shaker. • (7) The blocking solution is removed by decanting and the wells are washed once with PBS. Anti-BrdU-POD solution (1:100 dilution in PBS, 1% BSA) is added (100 μl/well) and the plate is incubated for 90 minutes at room temperature on a plate shaker. • (8) The antibody conjugate is thoroughly removed by decanting and rinsing the wells 5 times with PBS, and the plate is dried by inverting and tapping on a paper towel. • (9) TMB substrate solution is added (100 μl/well) and incubated for 20 minutes at room temperature on a plate shaker until color development is sufficient for photometric detection. • (10) The absorbance of the samples are measured at 410 nm (in “dual wavelength” mode with a filter reading at 490 nm, as a reference wavelength) on a Dynatech ELISA plate reader.

The next assay has as its system A431 cells. The assay can be described thus: A431 growth assay (2% FBS). The conditions noted are these: Homo sapiens, A-431, read-out: A431 growth (2% FBS) IC50.
The test system of a further assay is SKOV3 cells. The assay can be described thus: SKOV3 growth assay (2% FBS). The conditions noted are these: Homo sapiens, SK-OV-3, read-out: SKOV3 growth (2% FBS) IC50.

Structures are written as SMILES.

T1 sequence (P04626 676-1255 limits assumed, change not shown): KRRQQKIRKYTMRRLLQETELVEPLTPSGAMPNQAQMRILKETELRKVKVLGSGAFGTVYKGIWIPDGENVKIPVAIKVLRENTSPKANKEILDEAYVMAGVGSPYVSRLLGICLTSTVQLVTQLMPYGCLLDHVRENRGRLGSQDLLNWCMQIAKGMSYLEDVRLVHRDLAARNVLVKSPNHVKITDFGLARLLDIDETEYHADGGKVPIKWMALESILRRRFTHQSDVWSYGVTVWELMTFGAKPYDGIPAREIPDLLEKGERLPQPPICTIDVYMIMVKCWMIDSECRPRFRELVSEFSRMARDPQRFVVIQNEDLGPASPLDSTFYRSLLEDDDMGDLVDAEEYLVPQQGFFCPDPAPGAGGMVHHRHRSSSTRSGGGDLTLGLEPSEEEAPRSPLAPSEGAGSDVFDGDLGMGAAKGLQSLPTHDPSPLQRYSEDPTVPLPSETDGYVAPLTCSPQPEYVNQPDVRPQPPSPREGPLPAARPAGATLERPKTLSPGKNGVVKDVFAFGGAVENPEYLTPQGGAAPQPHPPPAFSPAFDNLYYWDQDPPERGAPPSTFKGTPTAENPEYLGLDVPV

With `COc1ccc(C=C2C(=O)Nc3cc(NC(C)=O)ccc32)cc1-c1cccc(NC(C)=O)c1` (mixture of isomers) [Example 63, N-[3-(3′-Acetylamino-6-methoxybiphenyl-3-ylmethylene)-2-oxo-2,3-dihydro-1H-indol-6-yl]-acetamide], the half-inhibitory concentration (IC50) (commonly the point on the concentration scale where inhibition reaches its midpoint) in assay [1] was 20.4 µM; with A431 cells, 11 µM; in the assay with SKOV3 cells, over 25 µM.

Consider `CC1(C)CCc2cc(C=C3C(=O)Nc4ccc(Br)cc43)ccc2O1` (racemic) [Example 34, 5-Bromo-3-(2,2-dimethylchroman-6-ylmethylene)-1,3-dihydroindol-2-one], for which the half-inhibitory concentration (IC50) in assay [1] was 3.5 µM; with A431 cells, 4.4 µM; with SKOV3 cells it was 7.6 µM.

With `COc1c(C(C)C)cc(/C=C2/C(=O)Nc3cc(NC(C)=O)ccc32)cc1C(C)C` [Example 3, N-[3-(3,5-Diisopropyl-4-methoxybenzylidene)-2-oxo-2,3-dihydro-1H-indol-6-yl]-acetamide], the concentration for half-maximal inhibition (IC50) in assay [1] is 9.1 µM; in the assay on A431 cells, 2.2 µM; with SKOV3 cells, 2.6 µM.

Consider `COc1c(C(C)C)cc(/C=C2/C(=O)Nc3cc(O)ccc32)cc1C(C)C` [Example 4, 3-(3,5-Diisopropyl-4-methoxybenzylidene)-6-hydroxy-1,3-dihydroindol-2-one], for which the concentration for half-maximal inhibition (IC50) in assay [1] stood at 4.4 µM; in the assay with A431 cells, 5.1 µM; in the assay on SKOV3 cells, 7 µM.

Consider `COc1c(C(C)C)cc(/C=C2/C(=O)Nc3ccc(C(C)=O)cc32)cc1C(C)C` [Example 5, 5-Acetyl-3-(3,5-diisopropyl-4-methoxybenzylidene)-1,3dihydroindol-2-one], for which the IC50 was found to be 10.5 µM in assay [1], 4.3 µM with A431 cells and 5.4 µM in the assay on SKOV3 cells.

As for `COC(=O)c1ccc2c(c1)/C(=C\c1cc(C(C)C)c(OC)c(C(C)C)c1)C(=O)N2` [Example 6, 3-(3,5-Diisopropyl-4-methoxybenzylidene)-2-oxo-2,3-dihydro-1H-indole-5-carboxylic acid methyl ester], the values for the half-inhibitory concentration (IC50) (in assay [1]; in the assay on A431 cells; in the assay on SKOV3 cells) were 4.7 µM, 2.9 µM and 19.4 µM, respectively.

On to `COc1ccc(/C=C2/C(=O)Nc3ccccc32)cc1C(C)C` [Example 7, 3-(3-Isopropyl-4-methoxybenzylidene)-1,3-dihydroindol-2-one], for which the half-inhibitory concentration (IC50) in assay [1] amounted to 16.5 µM; with A431 cells it was 1.2 µM; in the assay with SKOV3 cells, 2.5 µM.

Consider `COc1cc(C)c(C=C2C(=O)Nc3ccccc32)cc1C(C)C` [Example 8, 3-(5-Isopropyl-4-methoxy-2-methylbenzylidene)-1,3-dihydroindol-2-one], for which the figures for the IC50 (in assay [1]; in the assay on A431 cells; in the assay with SKOV3 cells) were 33.4 µM, 0.95 µM and 0.96 µM, respectively.

As for `COc1cc(C)c(C=C2C(=O)Nc3ccc(Cl)cc32)cc1C(C)C` [Example 9, 5-Chloro-3-(5-isopropyl-4-methoxy-2-methylbenzylidene)-1,3-dihydroindol-2-one], the half-maximal inhibitory concentration (IC50) in assay [1] was found to be 4.5 µM; in the assay with A431 cells, 17.3 µM; in the assay on SKOV3 cells it was 14.5 µM.

On to `COc1ccc(/C=C2/C(=O)Nc3ccccc32)cc1C1CCCC1` [Example 10, 3-(3-Cyclopentyl-4-methoxybenzylidene)-1,3-dihydroindol-2-one], for which the half-inhibitory concentration (IC50) in assay [1] was 14.1 µM; in the assay with A431 cells it was 8.5 µM; in the assay with SKOV3 cells, 11.2 µM.

In the case of `COc1ccc(/C=C2/C(=O)Nc3ccc(F)cc32)cc1C1CCCC1` [Example 11, 3-(3-Cyclopentyl-4-methoxybenzylidene)-5-fluoro-1,3-dihydroindol-2-one], the IC50 in assay [1] was found to be 9.3 µM; with A431 cells, 12.5 µM; with SKOV3 cells, 15 µM.

Regarding `COc1ccc(/C=C2/C(=O)Nc3ccccc32)cc1C1CCCCC1` [Example 12, 3-(3-Cyclohexyl-4-methoxybenzylidene)-1,3-dihydroindol-2-one], the IC50 in assay [1] turned out to be 31.9 µM; with A431 cells it was 7.9 µM; with SKOV3 cells it was 10.1 µM.

`COc1ccc(/C=C2/C(=O)Nc3ccc(Br)cc32)cc1-c1ccccc1` [Example 13, 5-Bromo-3-(6-methoxybiphenyl-3-ylmethylene)-1,3-dihydroindol-2-one]: the figures for the IC50 (in assay [1]; in the assay with A431 cells; in the assay with SKOV3 cells) were 9 µM, 9 µM and 21.3 µM, respectively.

As to `CC1(C)CCc2cc(/C=C3/C(=O)Nc4ccc(Cl)cc43)ccc2O1` [Example 15, 5-Chloro-3-(2,2-dimethyl-chroman-6-ylmethylene)-1,3-dihydroindol-2-one], the IC50 in assay [1] stood at 4.4 µM; in the assay on A431 cells it was 4.8 µM; with SKOV3 cells, 7 µM.

For `CC(=O)Nc1ccc2c(c1)NC(=O)/C2=C/c1ccc(OCCN2CCOCC2)c(C2CCCCC2)c1` [Example 16, N-{3-[3-Cyclohexyl-4-(2-morpholin-4-ylethoxy)-benzylidene]-2-oxo-2,3-dihydro-1H-indol-6-yl}-acetamide], the IC50 in assay [1] is 4.2 µM; in the assay on A431 cells, 4.1 µM; with SKOV3 cells, 5.9 µM.

In the case of `COc1ccc2c(c1)/C(=C\c1cc(C(C)C)c(OC)c(C(C)C)c1)C(=O)N2` [Example 17, 3-(3,5-Diisopropyl-4-methoxybenzylidene)-5-methoxy-1,3-dihydroindol-2-one], the figures for the concentration for half-maximal inhibition (IC50) (in assay [1]; in the assay with A431 cells; in the assay with SKOV3 cells) were 5.5 µM, 4.3 µM and 6.1 µM, respectively.

For `COc1ccc(/C=C2/C(=O)Nc3cc(NC(C)=O)ccc32)cc1-c1ccsc1` [Example 18, N-[3-(4-Methoxy-3-thiophene-3-ylbenzylidene)-2-oxo-2,3-dihydro-1H-indol-6-yl]-acetamide], the IC50 is over 50 µM in assay [1], 0.6 µM with A431 cells and 1 µM with SKOV3 cells.

Regarding `COc1c(C(C)C)cc(/C=C2/C(=O)Nc3ccc(C)cc32)cc1C(C)C` [Example 19, 3-(3,5-Diisopropyl-4-methoxybenzylidene)-5-methyl-1,3-dihydroindol-2-one], the IC50 in assay [1] came to 3.3 µM; with A431 cells it was 4.3 µM; in the assay on SKOV3 cells, 5.9 µM.

For `COc1c(C(C)C)cc(/C=C2/C(=O)Nc3ccc(N)cc32)cc1C(C)C` [Example 20, 5-Amino-3-(3,5-diisopropyl-4-methoxy-benzylidene)-1,3-dihydroindol-2-one], the IC50 in assay [1] is 15.7 µM; in the assay with A431 cells, 29.5 µM; with SKOV3 cells, 35.5 µM.

For the compound `CC(=O)Nc1ccc2c(c1)NC(=O)/C2=C\c1ccc2c(c1)CCC(C)(C)O2` [Example 33, N-[3-(2,2-Dimethylchroman-6-ylmethylene)-2-oxo-2,3-dihydro-1H-indol-6-yl]-acetamide], the results for the concentration for half-maximal inhibition (IC50) with A431 cells and in the assay with SKOV3 cells were 6.7 µM and 10.3 µM, respectively.

As for `COc1cc(C)c(/C=C2/C(=O)Nc3ncccc32)cc1C(C)C` [Example 45, 3-(5-Isopropyl-4-methoxy-2-methylbenzylidene)-1,3-dihydro-pyrrolo[2,3-b]pyridin-2-one], the values for the IC50 (in assay [1]; in the assay with A431 cells) were over 50 µM and 3.2 µM, respectively.

Take `CC(=O)Nc1ccc2c(c1)NC(=O)/C2=C/c1ccc(OCCN2CCOCC2)c(-c2ccsc2)c1` [Example 50, N-{3-[4-(2-Morpholin-4-ylethoxy)-3-thiophen-3-ylbenzylidene]-2-oxo-2,3-dihydro-1H-indol-6-yl}-acetamide]: the 50% inhibitory concentration (IC50) in assay [1] stood at 31.1 µM.

On to `COc1ccc(/C=C2/C(=O)Nc3ccc(Cl)cc32)cc1C1CCCCC1` [Example 51, 5-Chloro-3-(3-cyclohexyl-4-methoxybenzylidene)-1,3-dihydroindol-2-one], for which the IC50 in the assay on SKOV3 cells was 14.5 µM.

Take `COc1c(C)cc(/C=C2/C(=O)Nc3ncccc32)cc1C` [Example 56, 3-(4-Methoxy-3,5-dimethylbenzylidene)-1,3-dihydropyrrolo[2,3-b]pyridin-2-one]: the IC50 with SKOV3 cells is over 20 µM.
